Laboratory results reported in US12012404B2, “Pyrimidoheterocyclic compounds and application thereof” (D3 BIO (WUXI) CO., LTD., priority 2020, dated 2024).

How the values were obtained:
Assay type in all cases: in vitro ADME
[1] = Stability assay in whole blood, cynomolgus monkeys; conditions: 5 μM, 37° C.
Description: (§1) Purpose of the assay: Stabilities of the assay compounds in whole blood of CD-1 mice, SD rats, Beagle dogs and cynomolgus monkeys were assayed, respectively.
(§2) Procedure of the assay: On the day of the assay or the day before the assay, fresh whole blood from CD-1 mice, SD rats, beagle dogs, and cynomolgus monkeys was collected using anticoagulant EDTA-K2. Prior to the start of the assay, the whole blood was mixed with PBS in 1:1 (v:v) and the mixture was preheated in a 37° C. water bath for 10-20 minutes. […] […] All samples were incubated in a 37° C. water bath. The final incubation concentration of the compound was 5 μM and the final incubation concentration of the control compound was 2 μM. At the end of incubation for each time point, the corresponding incubation plate was removed and 100 μL of ultrapure water was immediately added to the corresponding sample wells, and mixed well. 800 μL of a solution of 200 ng/mL tolbutamide and labetalol in acetonitrile was added to precipitate the protein. The sample plates were sealed and shaken well, and then centrifuged at 3220×g for 20 min. 150 μL of supernatant was taken out and analyzed by LC/MS/MS.

plasma protein of human = assay: Protein binding rate by equilibrium dialysis, human plasma; conditions: 2 μM, dialysis 4 hours
Description: Purpose of the assay: Protein binding rate of the assay compounds in plasma of CD-1 mice, SD rats, beagle dogs, cynomolgus monkeys and human was determined by equilibrium dialysis.
Procedure of the assay: Plasma samples with a compound concentration of 2 μM were prepared using plasma of the above five species, placed in a 96-well equilibrium dialysis device, and dialyzed with phosphate buffer solution at 37±1° C. for 4 hours. Warfarin was used as the control compound in this assay. The concentrations of the assay compounds in plasma and dialysis buffer were determined by LC-MS/MS method.

[2] = Stability assay in whole blood, beagle dogs; conditions: 5 μM, 37° C.
Description: as §1, §2

[3] = Stability assay in plasma, CD-1 mice; conditions: CD-1 mice plasma, 2 μM, 37° C.
Description: Purpose of the assay: Stabilities of the assay compounds in plasma of CD-1 mice and human were assayed, respectively.
Procedure of the assay: Cryopreserved plasma was thawed for 10-20 min. After the plasma was completely thawed, it was placed in a centrifuge and centrifuged at 3220×g for 5 min to remove any suspended matter and sediment in the plasma. 96-well incubation plates were prepared and named TO, T10, T30, T60, T120, respectively. 98 μL of blank plasmas of mouse, rat, canine, monkey and human were added to the corresponding incubation plates, then 2 μL of working solutions of the compound or the control compound were added to the corresponding plates in duplicate. All samples were incubated in a 37° C. water bath. The final incubation concentrations of the compound and the control compounds bisacodyl, enalapril maleate, procaine and probanthine were 2 μM, and the final organic phase content was 2.0%. At the end of incubation for each time point, the corresponding incubation plate was removed and 400 μL of a solution of 200 ng/mL of tolbutamide and labetalol in acetonitrile was added to each corresponding sample well to precipitate the protein. All sample plates were sealed and shaken well, and then centrifuged at 3220×g for 20 minutes. 50 μL of supernatant was taken out and diluted in 100 μL of ultrapure water. All samples were mixed well and then analyzed by LC/MS/MS.

[4] = Stability assay in whole blood, SD rats; conditions: 5 μM, 37° C.
Description: as §1, §2

[5] = Stability assay in whole blood, CD-1 mice; conditions: CD-1 mice whole blood, 5 μM, 37° C.
Description: as §1, §2

[6] = Metabolic stability in hepatocytes, CD-1 mice; conditions: CD-1 mice hepatocytes
Description: Purpose of the assay: Metabolic stabilities of assay compounds in hepatocytes of CD-1 mice, SD rats, beagle dogs, cynomolgus monkeys, and human were assayed, respectively.
Procedure of the assay: Several 96-well sample precipitation plates were prepared and named T0, T15, T30, T60, T90, T120, TO-MC, T120-MC and blank substrates, respectively. The recovery medium and incubation medium were taken out in advance and placed in a 37° C. water bath for pre-heating. Cryopreserved hepatocytes were removed from the liquid nitrogen tank and immediately immersed in a 37° C. water bath (approximately 90 seconds). After the cryopreserved hepatocytes had thawed and loosened, they were poured into a centrifuge tube containing 40 mL of recovery medium, and the tube was gently inverted to allow the cells to be resuspended in the recovery medium. The cells were centrifuged at 100×g at room temperature for 5 min, and the supernatant was removed. The hepatocytes were resuspended in an appropriate volume of incubation medium, and the cell viability was calculated by Trypan Blue staining method. 198 μL of hepatocyte suspension (0.51×10^6 cells/mL) was added to the preheated incubation plate. For the culture medium control group, 198 μL of hepatocyte-free incubation medium was added to T0-MC and T120-MC incubation plate. All incubation plates were pre-incubated in a 37° C. incubator for 10 minutes. Then 2 μL of working solutions of the assay sample and the control compound were added, respectively, and the mixture was mixed well. The incubation plate was immediately put into the shaker in the incubator, and the reaction was initiated while starting the timer. For each time point of each compound, 2 duplicate samples were prepared. The incubation conditions were 37° C., saturated humidity, and 5% CO2. In the assay system, the final concentration of the assay sample was 1 μM, the final concentration of the control sample was 3 μM, the final concentration of hepatocytes was 0.5×10^6 cells/mL, and the final concentration of the total organic solvent was 0.96%, of which the final concentration of DMSO was 0.1%. At the end of the incubation for the corresponding time point, the incubation plate was taken out, and 25 μL of a mixture of compound and control compound with cells was added to the sample plate containing 125 μL of stop solution (200 ng/mL tolbutamide and labetalol in acetonitrile). For the Blank sample plate, 25 μL of hepatocyte-free incubation medium was added directly. After sealing, all sample plates were shaken on a shaker at 600 rpm for 10 minutes, and then centrifuged at 3220×g for 20 minutes. Supernatants of the assay sample and the control sample were diluted with ultrapure water at a ratio of 1:3. All samples were mixed well and analyzed by LC/MS/MS.

Row | Structure (SMILES) | Detection of assay compound content within 120 min [1] [%] | Protein unbound rate (plasma protein of human) | Detection of assay compound content within 120 min [2] [%] | Detection of assay compound content within 120 min [3] [%] | Detection of assay compound content within [4] [%] | Detection of assay compound content within 120 min [5] [%] | CLint(hep) ([6]; 1 μM) [μL/min/10^6] | CLint(liver) ([6]; 1 μM) [mL/min/kg] | T1/2 ([6]; 1 μM) [min] | half-life at 1 μM ([6]; mouse, cryopreserved hepatocytes) [min] | CLint scaled at 1 μM ([6]; mouse, cryopreserved hepatocytes, read-out: CLint(liver)) [mL/min/kg]
1 | C=C(F)C(=O)N1CCN(c2nc(OCC3CCCN3C)nc3c2COC(c2c(F)c(N)cc(C)c2C(F)(F)F)C3)CC1CC#N.Cl (single isomer, unassigned) [Compound 8B hydrochloride] | 58 | 10.6 | 96 | 110 | 104 | 100 | 76.3 | 906.0 | 18.2 |  | 
2 | C=C(F)C(=O)N1CCN(c2nc(OC[C@@]34CCCN3C[C@H](F)C4)nc3c2COC(c2c(F)c(N)cc(C)c2C(F)(F)F)C3)C[C@@H]1CC#N (stereo partly drawn) [Compound 17] | 77 | 4.8 | 102 | 94 | 115 | 117 | 146.3 |  |  | 9.5 | 1740
